Where a SMILES comes first, the peptide text is derived from it. [ ]: non-standard residue; d: D form. The star is where a group is joined. Met(O2) = CS(=O)(=O)CC[C@H](N)C(=O)O; Palmitoyl = CCCCCCCCCCCCCCCC(=O)*; Ava = NCCCCC(=O)O

The test system of one assay is dermal NHF. Briefly: Immunostaining method on dermal NHF: collagen I (Table 7, Test 2). It is filed as cell-based, human. Particulars: % difference compared to the control. From the text: Table 7 showing % differences in collagen I in the dermis compared to the control for dioxygenated peptide compounds according to the immunostaining method or to ELISA test on dermal NHF

The subject of assay [1] is normal human dermal fibroblasts (NHF). Briefly: ELISA test on normal human dermal fibroblasts (NHF): macromolecules in culture supernatant. It is filed as cell-based. Particulars: % difference compared to the control; for Collagen I in the dermis Test 1: Table 7; for Fibronectin: dermal NHF; for Collagen I in the dermis: 3 days contact. The method, then:
> ELISA test on normal human dermal fibroblasts (NHF)
This test examines the dermal molecules.
Normal human dermal fibroblasts are cultured in multi-well plates. The cells either are or are not placed in contact with the test substances for 3 days. The culture supernatants are removed and the quantity of macromolecules present (collagen I, fibronectin, collagen IV and hyaluronic acid) is assayed by ELISA.
(In general: An ELISA detects its analyte on a solid surface through an enzyme-linked reagent.)

With `CCCCCCCCCCCCCCCC(=O)NCCCCC(=O)N[C@@H](CCS(C)(=O)=O)C(N)=O` [Pal-Ava-MO2-NH2], the “Collagen I in the dermis Test 2” value is listed as “+495%” in the assay on dermal NHF (2 ppm), “+667%” in the assay on dermal NHF (4 ppm) and “+557%” in the assay on dermal NHF (6 ppm).
Take `CCCCCCCCCCCCCCCC(=O)N[C@@H](CCCCN)C(=O)NCCCCC(=O)N[C@@H](CCCCN)C(=O)O` [Pal-K-Ava-K-OH, reference compound]: the results for the “Collagen I in the dermis Test 1” value in assay [1] (4 ppm) and in assay [1] (6 ppm) were “+116%” and “+175%”, respectively.
`CCCCCCCCCCCCCCCC(=O)N[C@@H](CCCCN)C(=O)NCCCCC(=O)N[C@@H](CCS(C)(=O)=O)C(=O)N[C@@H](CCCCN)C(=O)O` [Pal-K-Ava-MO2-K-OH] (Palmitoyl-K[Ava][Met(O2)]K-OH): the “Collagen I in the dermis Test 1” value is given as “+63%” in assay [1] (2 ppm) and “+167%” in assay [1] (4 ppm).
On to `CCCCCCCCCCCCCCCC(=O)N[C@@H](CCCCN)C(=O)N[C@@H](Cc1ccccc1)C(=O)N[C@@H](CCS(C)(=O)=O)C(=O)N[C@@H](CCCCN)C(=O)O` [Pal-K-F-MO2-K-OH] (Palmitoyl-KF[Met(O2)]K-OH), for which the results for the “Collagen I in the dermis Test 1” value in assay [1] (4 ppm) and in assay [1] (6 ppm) were “+80%” and “+81%”, respectively.
As for `CCCCCCCCCCCCCCCC(=O)N[C@@H](CCCCN)C(=O)N[C@@H](CCS(C)(=O)=O)C(=O)NCCCCC(=O)N[C@@H](CCCCN)C(=O)O` [Pal-K-MO2-Ava-K-OH] (Palmitoyl-K[Met(O2)][Ava]K-OH), in assay [1] (2 ppm), the “Collagen I in the dermis Test 1” value was “+75%”.
On to `CCCCCCCCCCCCCCCC(=O)N[C@@H](CCCCN)C(=O)N[C@@H](CCS(C)(=O)=O)C(=O)N[C@@H](Cc1ccccc1)C(=O)N[C@@H](CCCCN)C(=O)O` [Pal-K-MO2-F-K-OH] (Palmitoyl-K[Met(O2)]FK-OH), for which, in assay [1] (4 ppm), the “Collagen I in the dermis Test 1” value is listed as “+91%”.
Take `CCCCCCCCCCCCCCCC(=O)N[C@@H](CCCCN)C(=O)N[C@@H](CCS(C)(=O)=O)C(=O)N[C@H](C(=O)N[C@@H](CCCCN)C(=O)O)[C@@H](C)O` [Pal-K-MO2-T-K-OH] (Palmitoyl-K[Met(O2)]TK-OH): the “Collagen I in the dermis Test 1” value in assay [1] (4 ppm) is “+45%”; in assay [1] (6 ppm), “+194%”. Also, the “Collagen I in the dermis Test 2” value was “+192%” with dermal NHF (4 ppm) and “+217%” in the assay with dermal NHF (6 ppm).
With `CCCCCCCCCCCCCCCC(=O)N[C@@H](CCCCN)C(=O)N[C@H](C(=O)N[C@@H](Cc1ccccc1)C(=O)N[C@@H](CCCCN)C(=O)O)[C@@H](C)O` [Pal-K-T-F-K-OH, reference compound] (Palmitoyl-KTFK-OH), the “Collagen I in the dermis Test 1” value in assay [1] (4 ppm) is “+82%”; in assay [1] (6 ppm) it was “+103%”.
With `CCCCCCCCCCCCCCCC(=O)N[C@@H](CCCCN)C(=O)N[C@H](C(=O)N[C@@H](Cc1ccccc1)C(=O)N[C@@H](CCS(C)(=O)=O)C(N)=O)[C@@H](C)O` [Pal-K-T-F-MO2-NH2] (Palmitoyl-KTF[Met(O2)]-NH2), the “Collagen I in the dermis Test 1” value in assay [1] (4 ppm) is on record as “+106%”; in assay [1] (6 ppm) it was “+121%”. For the same compound, the entries for the “Collagen I in the dermis Test 2” value with dermal NHF (2 ppm), in the assay with dermal NHF (4 ppm) and with dermal NHF (6 ppm) were “+267%”, “+420%” and “+400%”, respectively.
The corresponding values for `CCCCCCCCCCCCCCCC(=O)N[C@@H](CCCCN)C(=O)N[C@H](C(=O)N[C@@H](CCS(C)(=O)=O)C(=O)N[C@@H](CCCCN)C(=O)O)[C@@H](C)O` [Pal-K-T-MO2-K-OH] (Palmitoyl-KT[Met(O2)]K-OH) are “+75%”, “+161%”, “+273%”, “+341%” and “+262%”.
For the compound `CCCCCCCCCCCCCCCC(=O)N[C@@H](CCCCN)C(=O)N[C@@H](C)C(=O)N[C@@H](CCCCN)C(=O)O` [Pal-KAK-OH, reference compound] (Palmitoyl-Lys-Ala-Lys-OH), in assay [1] (4 ppm peptide), the “Coll. I” value is reported as “+42%”, the “Coll. IV” value is recorded as -6% and the Fibronectin entry is given as “+33%”.
Take `CCCCCCCCCCCCCCCC(=O)N[C@@H](CCCCN)C(=O)N[C@@H](CS)C(=O)N[C@@H](CCCCN)C(=O)O` [Pal-KCK-OH] (Palmitoyl-Lys-Cys-Lys-OH): in assay [1] (4 ppm peptide), the “Coll. I” value was “+145%”, the “Coll. IV” value was -1%, the “Collagen I in the dermis” value is reported as “+145%” and the Fibronectin result is “+57%”. In assay [1] (6 ppm peptide), the “Coll. I” value is recorded as “+133%”, the “Coll. IV” value is on record as “+23%”, the “Collagen I in the dermis” value is “+133%” and the Fibronectin entry is “+70%”.
`CCCCCCCCCCCCCCCC(=O)N[C@@H](CCCCN)C(=O)N[C@@H](CCSC)C(=O)N[C@@H](CCCCN)C(=O)O` [Pal-KMK-OH] (Palmitoyl-Lys-Met-Lys-OH): the “Collagen I in the dermis” value in assay [1] (4 ppm peptide) is recorded as “+21%”; in assay [1] (8 ppm peptide) it was “+64%”. Besides, the figures for the “Collagen I in the dermis Test 1” value in assay [1] (4 ppm) and in assay [1] (6 ppm) were “+21%” and “+63%”, respectively.
`CCCCCCCCCCCCCCCC(=O)N[C@@H](CCCCN)C(=O)N[C@@H](CC(N)=O)C(=O)N[C@@H](CCCCN)C(=O)O` [Pal-KNK-OH] (Palmitoyl-Lys-Asn-Lys-OH): in assay [1] (5 ppm peptide), the “Collagen I in the dermis” value is reported as “+55%”.
For the compound `CCCCCCCCCCCCCCCC(=O)N[C@@H](CCCCN)C(=O)N[C@@H](CCC(N)=O)C(=O)N[C@@H](CCCCN)C(=O)O` [Pal-KQK-OH], in assay [1] (5 ppm peptide), the “Coll. I” value was “+82%” and the Fibronectin result is “+35%”.
As to `CCCCCCCCCCCCCCCC(=O)N[C@@H](CCCCN)C(=O)N[C@@H](CO)C(=O)N[C@@H](CCCCN)C(=O)O` [Pal-KSK-OH, reference compound] (Palmitoyl-Lys-Ser-Lys-OH), in assay [1] (4 ppm peptide), the “Coll. I” value is “+46%”, the “Coll. IV” value is reported as “+1%” and the Fibronectin entry is reported as “+26%”.
Regarding `CCCCCCCCCCCCCCCC(=O)N[C@@H](CCS(C)(=O)=O)C(=O)NCCCCC(N)=O` [Pal-MO2-Ava-NH2], the entries for the “Collagen I in the dermis Test 2” value with dermal NHF (2 ppm), in the assay on dermal NHF (4 ppm) and with dermal NHF (6 ppm) were “+375%”, “+582%” and “+461%”, respectively.
The corresponding values for `CCCCCCCCCCCCCCCC(=O)N[C@@H](CCS(C)(=O)=O)C(=O)N[C@@H](CCCCN)C(=O)O` [Pal-MO2-K-OH] (Palmitoyl-[Met(O2)]-Lys-OH) are “+270%”, “+457%” and “+226%”.
In the case of `CCCCCCCCCCCCCCCC(=O)N[C@@H](CCS(C)(=O)=O)C(=O)N[C@H](C(=O)N[C@@H](Cc1ccccc1)C(=O)N[C@@H](CCCCN)C(=O)O)[C@@H](C)O` [Pal-MO2-T-F-K-OH] (Palmitoyl-[Met(O2)]TFK-OH), the results for the “Collagen I in the dermis Test 1” value in assay [1] (4 ppm) and in assay [1] (6 ppm) were “+111%” and “+148%”, respectively. For the same compound, the “Collagen I in the dermis Test 2” value in the assay on dermal NHF (2 ppm) is “+218%”; in the assay with dermal NHF (4 ppm) it was “+456%”; in the assay on dermal NHF (6 ppm) it was “+520%”.
